Assay results as given in PubChem BioAssay (NCI).
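Each compound was tested at five concentrations against cells in 96-well plates for 48 hours. GI50 is the concentration that inhibits growth by half. TGI is the concentration that stops growth completely.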

Columns and labels:
Assay in all cases: NCI anticancer screen, dose series, 48 h
ACHN renal = tested on: ACHN renal
HCT-116 colon = tested on: HCT-116 colon
NCI-H226 lung = tested on: NCI-H226 lung
SK-MEL-2 melanoma = tested on: SK-MEL-2 melanoma
A549 NSCLC = tested on: A549 NSCLC
RPMI-8226 leukemia = tested on: RPMI-8226 leukemia
HCC-2998 colon = tested on: HCC-2998 colon
MDA-MB-231 breast = tested on: MDA-MB-231 breast
PC-3 prostate = tested on: PC-3 prostate
MDA-MB-435 = tested on: MDA-MB-435

N=C1N(c2ccccc2)C(=O)C23CCCC2C13N1CCOCC1 (stereo not given)
TGI (ACHN renal): > 100 µM
TGI (HCT-116 colon): > 100 µM
TGI (NCI-H226 lung): > 100 µM
TGI (SK-MEL-2 melanoma): > 100 µM
TGI (A549 NSCLC): > 100 µM
TGI (RPMI-8226 leukemia): > 100 µM
TGI (HCC-2998 colon): > 100 µM

COc1cc(-c2cc(=O)c3ccccc3o2)ccc1N
TGI (ACHN renal): > 100 µM
TGI (HCT-116 colon): > 100 µM
TGI (NCI-H226 lung): 96.6 µM
TGI (SK-MEL-2 melanoma): > 100 µM
TGI (A549 NSCLC): > 100 µM
TGI (RPMI-8226 leukemia): > 100 µM
TGI (HCC-2998 colon): > 100 µM

NC(=O)N/N=C(\C(=O)C(=O)Nc1ccc(Cl)c(C(F)(F)F)c1)c1nc2ccc(C(=O)c3ccccc3)cc2[nH]c1=O
TGI (ACHN renal): > 100 µM
TGI (HCT-116 colon): > 100 µM
TGI (NCI-H226 lung): > 100 µM
TGI (SK-MEL-2 melanoma): > 100 µM
TGI (A549 NSCLC): > 100 µM
TGI (RPMI-8226 leukemia): > 100 µM
TGI (HCC-2998 colon): > 100 µM

CC(=O)NC(CCCCNC(=O)N(CCCl)N=O)C(=O)NCc1ccccc1 (stereo not given)
TGI (ACHN renal): > 100 µM
TGI (HCT-116 colon): > 100 µM
TGI (NCI-H226 lung): > 100 µM
TGI (SK-MEL-2 melanoma): > 100 µM
TGI (A549 NSCLC): > 100 µM
TGI (RPMI-8226 leukemia): > 100 µM
TGI (HCC-2998 colon): > 100 µM

O=C(/C=C\c1cccc2ccccc12)c1cccs1
TGI (ACHN renal): 24.1 µM
TGI (HCT-116 colon): 10.7 µM
TGI (A549 NSCLC): 34.5 µM
TGI (RPMI-8226 leukemia): 7.68 µM
TGI (HCC-2998 colon): 30 µM

ClC1CCC2OOC1O2 (stereo not given)
TGI (ACHN renal): > 100 µM
TGI (HCT-116 colon): > 100 µM
TGI (NCI-H226 lung): > 100 µM
TGI (SK-MEL-2 melanoma): > 100 µM
TGI (A549 NSCLC): > 100 µM
TGI (RPMI-8226 leukemia): > 100 µM
TGI (HCC-2998 colon): > 100 µM

COC(=O)C(=O)C(C(=O)C(=O)Nc1ccc(Cl)cc1C)c1nc2ccc(C(=O)c3ccccc3)cc2[nH]c1=O (stereo not given)
TGI (ACHN renal): > 100 µM
TGI (HCT-116 colon): > 100 µM
TGI (NCI-H226 lung): > 100 µM
TGI (SK-MEL-2 melanoma): > 100 µM
TGI (A549 NSCLC): > 100 µM
TGI (RPMI-8226 leukemia): > 100 µM
TGI (HCC-2998 colon): > 100 µM

COC(=O)C(C(=O)C(=O)Nc1ccccc1C(C)=O)c1nc2ccc(Cl)cc2[nH]c1=O (stereo not given)
TGI (ACHN renal): > 100 µM
TGI (HCT-116 colon): > 100 µM
TGI (NCI-H226 lung): > 100 µM
TGI (SK-MEL-2 melanoma): > 100 µM
TGI (A549 NSCLC): > 100 µM
TGI (RPMI-8226 leukemia): > 100 µM
TGI (HCC-2998 colon): > 100 µM

O=C(O)c1ccc(O)c(N=Nc2cc(S(=O)(=O)O)c3ccccc3c2O)c1
TGI (ACHN renal): > 100 µM
TGI (HCT-116 colon): 37.4 µM
TGI (NCI-H226 lung): > 100 µM
TGI (SK-MEL-2 melanoma): > 10 µM
TGI (A549 NSCLC): > 100 µM
TGI (RPMI-8226 leukemia): > 100 µM
TGI (HCC-2998 colon): > 100 µM

COC(=O)C(C(=O)C(=O)NC1=C(Cl)C(=O)c2ccccc2C1=O)c1csc(-n2nc(-c3ccccc3)cc2-c2ccccc2)n1 (stereo not given)
TGI (ACHN renal): > 100 µM
TGI (HCT-116 colon): > 100 µM
TGI (NCI-H226 lung): > 100 µM
TGI (A549 NSCLC): > 100 µM
TGI (RPMI-8226 leukemia): > 100 µM
TGI (HCC-2998 colon): > 100 µM

Cc1ccc([N+](=O)[O-])cc1NC(=O)C(=O)Cc1occc(=O)c1O
TGI (ACHN renal): > 100 µM
TGI (NCI-H226 lung): > 100 µM
TGI (A549 NSCLC): > 100 µM
TGI (RPMI-8226 leukemia): > 100 µM
TGI (HCC-2998 colon): > 100 µM

C[C@@H](CO)OCOCc1ccccc1
TGI (HCT-116 colon): > 100 µM
TGI (SK-MEL-2 melanoma): > 100 µM
TGI (A549 NSCLC): > 100 µM
TGI (RPMI-8226 leukemia): > 100 µM
TGI (HCC-2998 colon): > 100 µM

COC(=O)/C(C#N)=C1\CCC(O)N1C (stereo not given)
TGI (ACHN renal): > 100 µM
TGI (HCT-116 colon): > 100 µM
TGI (NCI-H226 lung): > 100 µM
TGI (SK-MEL-2 melanoma): > 100 µM
TGI (A549 NSCLC): > 100 µM
TGI (RPMI-8226 leukemia): > 100 µM
TGI (HCC-2998 colon): > 100 µM

CC1(C)OC(C(N)=O)=C(C(N)=O)O1
TGI (ACHN renal): > 100 µM
TGI (HCT-116 colon): > 100 µM
TGI (NCI-H226 lung): > 100 µM
TGI (SK-MEL-2 melanoma): > 100 µM
TGI (A549 NSCLC): > 100 µM
TGI (HCC-2998 colon): > 100 µM

Nc1ncnc(NC2C=C(CO)C(O)C2O)c1[N+](=O)[O-] (stereo not given)
TGI (ACHN renal): > 100 µM
TGI (HCT-116 colon): 75.4 µM
TGI (NCI-H226 lung): > 100 µM
TGI (SK-MEL-2 melanoma): > 100 µM
TGI (A549 NSCLC): > 100 µM
TGI (RPMI-8226 leukemia): > 100 µM
TGI (HCC-2998 colon): > 100 µM

COC(=O)C1=CN=C(C(=O)OC)NN1
TGI (ACHN renal): > 100 µM
TGI (HCT-116 colon): > 100 µM
TGI (NCI-H226 lung): > 100 µM
TGI (SK-MEL-2 melanoma): > 100 µM
TGI (A549 NSCLC): > 100 µM
TGI (RPMI-8226 leukemia): > 100 µM

Cc1c(C(=O)CC(=O)C(=O)Nc2ccc(Cl)c(Cl)c2)[n+](=O)c2ccccc2n1[O-]
TGI (ACHN renal): > 100 µM
TGI (HCT-116 colon): 35.4 µM
TGI (NCI-H226 lung): > 100 µM
TGI (SK-MEL-2 melanoma): 57 µM
TGI (A549 NSCLC): 69.3 µM
TGI (RPMI-8226 leukemia): 45.7 µM
TGI (HCC-2998 colon): 67.3 µM

COc1ccc(C(c2ccc(C(C)C)cc(=O)c2O)c2ccc3cccnc3c2O)cc1 (stereo not given)
TGI (ACHN renal): 7.53 µM
TGI (HCT-116 colon): 12.8 µM
TGI (NCI-H226 lung): 4.38 µM
TGI (SK-MEL-2 melanoma): 30.1 µM
TGI (A549 NSCLC): 12.3 µM
TGI (RPMI-8226 leukemia): 23.6 µM

CC(C)NCC(O)COC(=O)c1cccs1 (stereo not given)
TGI (ACHN renal): > 100 µM
TGI (SK-MEL-2 melanoma): > 100 µM
TGI (A549 NSCLC): > 100 µM
TGI (RPMI-8226 leukemia): > 100 µM
TGI (HCC-2998 colon): > 100 µM

Cc1ccccc1NC(=O)C(=O)C(c1cnc2ccc([N+](=O)[O-])cc2n1)[N+](=O)[O-] (stereo not given)
TGI (ACHN renal): > 100 µM
TGI (HCT-116 colon): > 100 µM
TGI (NCI-H226 lung): > 100 µM
TGI (SK-MEL-2 melanoma): > 100 µM
TGI (A549 NSCLC): > 100 µM
TGI (RPMI-8226 leukemia): > 100 µM
TGI (HCC-2998 colon): > 100 µM

O=C1C(=O)N(C(=O)c2ccc(Cl)c(Cl)c2)c2ccc(Cl)cc21
TGI (ACHN renal): > 100 µM
TGI (NCI-H226 lung): > 100 µM
TGI (A549 NSCLC): > 100 µM
TGI (RPMI-8226 leukemia): > 100 µM

C#CCN=C(N/N=C/c1ccc([N+](=O)[O-])o1)NS(=O)(=O)c1cc(C)c(Cl)cc1SCC(N)=O
GI50 (MDA-MB-231 breast): 11.4 µM
TGI (MDA-MB-231 breast): 26.4 µM
GI50 (ACHN renal): 16.7 µM
TGI (ACHN renal): 36.8 µM
GI50 (HCT-116 colon): 8.03 µM
TGI (HCT-116 colon): 20.3 µM
GI50 (PC-3 prostate): 20.4 µM
TGI (PC-3 prostate): 38.7 µM
GI50 (NCI-H226 lung): 20.1 µM
TGI (NCI-H226 lung): 40.5 µM
GI50 (SK-MEL-2 melanoma): 4.97 µM
TGI (SK-MEL-2 melanoma): 18.3 µM
GI50 (A549 NSCLC): 18 µM
TGI (A549 NSCLC): 35.3 µM
GI50 (RPMI-8226 leukemia): 12.8 µM
TGI (RPMI-8226 leukemia): 34.5 µM
GI50 (MDA-MB-435): > 100 µM
TGI (MDA-MB-435): > 100 µM
